# Tests used:
# NCI-H69 = assay: CellTiter-Glo luminescent cell viability assay; format: cell-based; conditions: Homo sapiens
# Description: (§1) The objective of this study is to investigate potential cell killing effect of Compounds 1-15 on 3 cancer cell lines. 50% inhibition concentration (IC50) was determined for these compounds in various cancer cell lines using CellTiter-Glo™ luminescent cell viability assay at different compound concentrations. Each cell line (e.g., NCI-H209; NCI-H69; and SW1271) was treated with Compounds 1-15 and culture medium contains 0.2% [v/v] DMSO vehicle control. All the cells were cultured in the media supplemented with 10-20% fetal bovine serum at 37° C., 5% CO2 and 95% humidity.
# NCI-H209 = assay: CellTiter-Glo luminescent cell viability assay; format: cell-based; conditions: Homo sapiens
# Description: as §1
# [1] = Pharmacokinetics in liver and tissues after oral administration; format: in vivo, mice
# Description: Compound 1 (20 mg per kg), Compound 5 (10 mg per kg), and pentamidine (20 mg per kg) were tested for their PK. Tissue samples were collected as described above in Example 23. Briefly, blood samples (approximately […]) were collected under light isoflurane anesthesia from retro orbital plexus of mice at 0.5, 1, 3, 8, 48 and 72 hr. Plasma samples were separated by centrifugation at 2,000×g for 6 minutes and stored below −70±10° C. until bioanalysis. Immediately after collection of blood, animals were euthanized using excess CO2 asphyxiation and samples were collected from set of five mice at each time point. Collected tissue samples were immediately dipped and rinsed three times in ice cold PBS (for 5-10 seconds/rinse using ˜5-10 mL fresh PBS in disposable petri dish for each rinse) and dried on blotting paper. Tissue samples were homogenized using ice-cold phosphate buffer saline (pH7.4) and homogenates were stored below −70±10° C. until analysis. Total homogenate volume was three times the tissue weight except for liver samples, total homogenate volume was ten times the liver weight. Bioanalysis process was determined by fit-for-purpose LC-MS/MS method.
# Calibration standards were prepared by spiking the test compound into blank plasma. 10 μL of working calibration standard was spiked into 190 μL of blank Mice Plasma or tissue homogenate to generate linearly spiked calibration standards. Calibrator concentrations were 5,000, 2,000, 1,000, 200, 100, 20, 10, 2 and 1 ng/mL. Calibration standard samples were processed along with the test samples. Twenty-five μL aliquots of plasma or tissue homogenate test samples were treated with 100 μL of acetonitrile containing internal standard (500 ng/mL Glipizide). Samples were vortexed for 5 minutes. Samples were centrifuged for 10 minutes at a speed of 4000 rpm at 4° C. Following centrifugation, 100 μL of clear supernatant was transferred in 96-well plates of and analyzed using LC-MS/MS. Chromatographic separation was achieved using a Kintex Polar column (C18, 100×4.6 mm, 5μ) and column oven temperature 45° C. For compound 1 diHCl the mobile phase A was water with 0.1% formic acid in Acetonitrile; mobile phase B was 10 mM ammonium formate. However, the mobile phase for pentamidine and Compound 5 mobile phase A was water with 0.1% formic acid and mobile phase B acetonitrile with 0.1% formic acid.
# The gradient program for Compound 1 was as follows: 5% B (1-2.40 min), 90% B (2.60-3.00 min), and the initial for B was 90%. The retention rate was 1.47 per minute and the internal standard Glipizide was 1 per 9 minutes. The column was maintained at 45° C. For pentamidine and Compound 5, analysis was performed using 233 MassSpec by AB Sciex API5000 with Turbo Ion Spray interface operating in a positive ionization mode. Quantification was performed using multiple reaction monitoring (MRM) method with the transitions of (m/z) 328 à (m/z) 311 for Compound 5 and (m/z) 548 à (m/z) 366 for Edoxaban (internal standard). While, for pentamidine (m/z) 341 à (m/z) 324 and (m/z) 548 à (m/z) 366 for Verapmil (internal standard).
# The gradient program for Compound 5 was as follows: 10% B (0-0.2 min), 95% B (1.5-2 min), the initial for B was 10% and it stopped at 2.6 mins. The flow rate was 0.5 mL/min. The gradient program for pentamidine was as follows: 10% B (0-0.2 min), 95% B (1.4-2 min), the initial for B was 10% and it stopped at 2.5 mins. The flow rate was 0.5 mL/min.
# HUH1 = assay: CellTiter-Glo cell viability, liver cell lines, 8 days; format: cell-based; conditions: Homo sapiens, HuH-1, 192 h; HUH1, 8 days
# Description: (§2) The objective of this study is to investigate the effect of Compound 1 on cell viability of various types of liver cancer. Ten (10) different liver cancer cell lines were employed in the study. Each liver cell line shown in Table 4 was treated with Compound 1, pentamidine, as reference control, a standard of care (cisplatin) and culture medium contains 0.2% [v/v] DMSO vehicle control and IC50 values were obtained as described above. The raw data values from the CellTiter-Glo™ cell viability assay expressed in relative luminescence units were normalized to the vehicle for each individual plate, and any reduction in luminescence indicated a decrease in viability (%). The data was analyzed in GraphPad PRISM using a non-linear sigmoidal plot with variable slope (asymmetric four-point linear regression), and an IC50 value for each compound was generated. The experiment tested pentamidine, compound 1, and standard-of-care control Cisplatin in full growth media for 8 days. Cells were initially treated with the test compounds on Day 0, and the cells were then replenished with fresh compound dilutions on Day 3. Pentamidine, Compound 1, and cisplatin were tested at 9 concentration points; 100, 33.33, 11.11, 3.70, 1.23, 0.41, 0.14, 0.05, and 0.02 μM (final DMSO concentration=0.5%). In particular, the IC50 values of pentamidine and Compound 1 were 0.8 and 0.6 μM in Hep3B-luc, respectively.
# HUH7 = assay: as above; format: cell-based; conditions: Homo sapiens, Huh-7, 192 h; HUH7, 8 days
# Description: as §2
# HEP3B2.7-1 = assay: as above; format: cell-based; conditions: HEP3B2.7-1, Table 4
# Description: as §2
# SK-HEP-1 = assay: as above; format: cell-based; conditions: Homo sapiens
# Description: as §2
# MHCC97H = assay: as above; format: cell-based; conditions: Homo sapiens, 192 h
# Description: as §2
# HepG2 = assay: as above; format: cell-based; conditions: Homo sapiens, 192 h; HepG2, 8 days
# Description: as §2
# Hep3B = assay: as above; format: cell-based; conditions: Homo sapiens, 192 h
# Description: as §2
# HCCLM3 = assay: as above; format: cell-based; conditions: Homo sapiens, 192 h; HCCLM3, 8 days
# Description: as §2
structure (smiles),measurement,setting,value
"N=C(N)c1ccc(OCCCCCOc2ccc(C(=N)N)nc2)cc1 [Compound 1, 5-(5-(4-carbamimidoylphenoxy)pentyloxy)picolinimidamide]",IC50,NCI-H69,858 nM
same,IC50,NCI-H209,1700 nM
same,"Cmax normalized to dose, liver, relative to pentamidine",[1]; 20 mpk p.o. both,~7 folds
same,exposure to the liver vs pentamidine (20 mpk),"[1]; Compound 1 20 mpk, Compound 5 10 mpk, p.o.",greater exposure to the liver than pentamidine
same,half-life vs pentamidine,"[1]; liver, p.o.",higher half-life than pentamidine
same,tissue exposure,"[1]; liver, small intestine, ileum, p.o.",increased exposure in the liver as well as small intestine and ileum
same,exposure to the plasma,"[1]; plasma vs other tissues, p.o.",low in comparison to other tissues
same,IC50,HUH1,2950 nM
same,IC50,HUH7,530 nM
same,IC50,HEP3B2.7-1,320 nM
same,IC50,"SK-HEP-1; SK-HEP1, SK-HEP-1, first listing in Table 4",1400 nM
same,IC50,"SK-HEP-1; SK-HEP1, SK-HEP-1, second listing in Table 4",630 nM
same,IC50,MHCC97H,5320 nM
same,IC50,HepG2,310 nM
same,IC50,Hep3B,180 nM
same,IC50,HCCLM3,9650 nM

# From patent publication US20250388542A1, “ANALOGUES OF PENTAMIDINE AND USES THEREFOR” (Auransa Inc., priority 2018, published 2025)
